Tests used:
BRD4 BD1 = molecular target: T1, BRD4 BD1 (Homo sapiens, UniProt O60885); experiment: AlphaScreen binding assay, BRD4 Bromodomain 1
T1 construct: made in house
In short: (§1)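 Compound dilution series were mixed with His-tagged BRD4 bromodomain and biotinylated tetra-acetylated H4 (1-21) peptide at pH 7.3 (BD1 and peptide at 50 nM, BD2 and peptide at 100 nM). Donor and acceptor beads were then added, and plates were equilibrated at least 1 h before reading. IC50 values were fitted with a four-parameter logistic model.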

BRD4 BD2 = molecular target: T2, BRD4 BD2 (Homo sapiens, UniProt O60885); experiment: AlphaScreen binding assay, BRD4 Bromodomain 2
T2 construct: made in house
In short: as §1

In the case of `COC(=O)N1c2ccc(-c3ccc(S(=O)(=O)CCN)cc3)cc2N(C(=O)C2CC2)C[C@@H]1C` [Example I-461], the IC50 (BRD4 BD1) is reported as 1000 to 10000 nM and the IC50 (BRD4 BD2) is reported as 50 to 500 nM.

`CC(=O)N1c2ccccc2N(C(=O)c2cc3ccccn3n2)C[C@@H]1C` [Example I-771] was tested, and the IC50 (BRD4 BD1) was > 10000 nM and the IC50 (BRD4 BD2) was > 500 nM.

`CC(=O)N1c2ccc(-c3ccc(=O)n(C)c3)cc2N(C(=O)c2ccco2)C[C@@H]1C` [Example I-411] was tested, and the IC50 (BRD4 BD1) was 1000 to 10000 nM and the IC50 (BRD4 BD2) was 50 to 500 nM.

Work on `CC(=O)N1c2ccc(-c3ccc(S(C)(=O)=O)cc3)cc2N(C(=O)Oc2ccc(F)cc2F)C[C@@H]1C` [Example I-1010] yielded an IC50 (BRD4 BD1) of 1000 to 10000 nM and an IC50 (BRD4 BD2) of 50 to 500 nM.

With `CC(=O)N1c2ccccc2N(Cc2cncn2C)C[C@@H]1C` [Example I-926] the IC50 (BRD4 BD1) was > 10000 nM and the IC50 (BRD4 BD2) was > 500 nM.

For `CC(=O)N1c2ccccc2N(C(=O)c2cc3ccccc3[nH]2)CC1C` (stereo not drawn) [Example I-730], the IC50 (BRD4 BD1) was > 10000 nM and the IC50 (BRD4 BD2) was > 500 nM.

For `CC(=O)N1c2ccc(-c3cnn(CCN4CCOCC4)c3)cc2N(C(=O)C2CC2)C[C@@H]1C` [Example I-151, (S)-1-(4-(cyclopropanecarbonyl)-2-methyl-6-(1-(2-morpholinoethyl)-1H-pyrazol-4-yl)-3,4-dihydroquinoxalin-1(2H)-yl)ethanone], the IC50 (BRD4 BD1) was 1000 to 10000 nM and the IC50 (BRD4 BD2) was 50 to 500 nM.

For `CC(=O)N1c2ccccc2N(C(=O)COCC(C)C)C[C@@H]1C` [Example I-772], the IC50 (BRD4 BD1) was > 10000 nM and the IC50 (BRD4 BD2) was > 500 nM.

With `CC(=O)N1c2ccccc2N(C(=O)c2ccnc3ccccc23)C[C@@H]1C` [Example I-754] the IC50 (BRD4 BD1) was > 10000 nM and the IC50 (BRD4 BD2) was > 500 nM.

In the case of `CC(=O)N1c2ccccc2N(C(=O)c2cnc(C)cn2)C[C@@H]1C` [Example I-721], the IC50 (BRD4 BD1) is reported as > 10000 nM and the IC50 (BRD4 BD2) is reported as > 500 nM.

With `CC(=O)N1c2ccc(-c3ccc4[nH]ccc4c3)cc2N(C(=O)c2ccco2)CC1C` (stereo not drawn) [Example I-385] the IC50 (BRD4 BD1) was 1000 to 10000 nM and the IC50 (BRD4 BD2) was > 500 nM.

With `CC(=O)N1c2ccccc2N(C(=O)COc2ccccc2)C[C@@H]1C` [Example I-712] the IC50 (BRD4 BD1) was > 10000 nM and the IC50 (BRD4 BD2) was > 500 nM.

In the case of `CC(=O)N1c2ccc(-c3ccc(C(F)(F)F)cc3)cc2N(C(=O)c2ccco2)C[C@@H]1C` [Example I-815], the IC50 (BRD4 BD1) is reported as 1000 to 10000 nM and the IC50 (BRD4 BD2) is reported as 50 to 500 nM.

`CC(=O)N1c2ccccc2N(S(=O)(=O)c2cccc(C)c2)C[C@@H]1C` [Example I-948] was tested, and the IC50 (BRD4 BD1) was > 10000 nM and the IC50 (BRD4 BD2) was > 500 nM.

For `CC(=O)N1c2ccc(-c3ccc(S(C)(=O)=O)cc3)cc2N(C(=O)c2ccc(OC(F)(F)F)cc2)C[C@@H]1C` [Example I-879], the IC50 (BRD4 BD1) was > 10000 nM and the IC50 (BRD4 BD2) was > 500 nM.

Compound `CC(=O)N1c2ccc(-c3cnn(CC(=O)N4CCOCC4)c3)cc2N(C(=O)C2CC2)C[C@@H]1C` [Example I-125, (S)-2-(4-(1-acetyl-4-(cyclopropanecarbonyl)-2-methyl-1,2,3,4-tetrahydroquinoxalin-6-yl)-1H-pyrazol-1-yl)-1-morpholinoethanone] has an IC50 (BRD4 BD1) of 1000 to 10000 nM and an IC50 (BRD4 BD2) of 50 to 500 nM.

Compound `CC(=O)N1c2ccc(-c3cnn(C(C)(C)C(N)=O)c3)cc2N(C(=O)C2CC2)C[C@@H]1C` [Example I-648] has an IC50 (BRD4 BD1) of 1000 to 10000 nM and an IC50 (BRD4 BD2) of 50 to 500 nM.

Compound `CC(=O)N1c2ccc(-c3cccc(-c4ncccn4)c3)cc2N(C(=O)c2ccco2)C[C@@H]1C` [Example I-405] has an IC50 (BRD4 BD1) of 1000 to 10000 nM and an IC50 (BRD4 BD2) of 50 to 500 nM.

Work on `COC(=O)N1c2ccc(-c3ccc(N4CCCS4(=O)=O)cc3)cc2N(C(=O)C2CC2)C[C@@H]1C` [Example I-457] yielded an IC50 (BRD4 BD1) of 1000 to 10000 nM and an IC50 (BRD4 BD2) of 50 to 500 nM.

In the case of `CC(=O)N1c2ccc(-c3ccc(S(C)(=O)=O)cc3)cc2N(C(=O)Nc2ccsc2)C[C@@H]1C` [Example I-979], the IC50 (BRD4 BD1) is reported as 1000 to 10000 nM and the IC50 (BRD4 BD2) is reported as 50 to 500 nM.

In the case of `COc1ccc(S(=O)(=O)N2C[C@H](C)N(C(C)=O)c3ccccc32)cc1` [Example I-936], the IC50 (BRD4 BD1) is reported as > 10000 nM and the IC50 (BRD4 BD2) is reported as > 500 nM.

With `CC(=O)N1c2ccc(-c3ncc(N)s3)cc2N(C(=O)c2ccco2)C[C@@H]1C` [Example I-431] the IC50 (BRD4 BD1) was > 10000 nM and the IC50 (BRD4 BD2) was > 500 nM.

With `CC(=O)N1c2ccc(-c3cnn(CC(=O)O)c3)cc2N(C(=O)C2CC2)C[C@@H]1C` [Example I-676] the IC50 (BRD4 BD1) was 1000 to 10000 nM and the IC50 (BRD4 BD2) was > 500 nM.

`CC(=O)N1c2ccccc2N(C(=O)c2ccc3c(c2)CCO3)C[C@@H]1C` [Example I-717] was tested, and the IC50 (BRD4 BD1) was > 10000 nM and the IC50 (BRD4 BD2) was > 500 nM.
